Reference: patent publication US8629173B2, “Solid forms comprising (+)-2-[1-(3-ethoxy-4-methoxyphenyl)-2-methylsulfonylethyl]-4-acetylaminoisoindoline-1,3-dione, compositions thereof, and uses thereof” (Celgene Corporation, priority 2002, dated 2014)

Legend:
[1] = tested on: conscious ferret; test: Emesis and behavioral changes in conscious ferret; type: in vivo
Method: The conscious ferret model has been used to investigate anti-inflammatory, emetic and behavioral effects of PDE4 inhibitors when administered by the oral (p.o.) route. From these experiments, a therapeutic index (TI) for each PDE4 inhibitor may be determined. The TI has been calculated by dividing the threshold dose for causing emetic episodes and behavioral changes by the anti-inflammatory dose (dose that causes 50% inhibition of the LPS-induced neutrophilia).
PDE4 inhibitors were administered orally (p.o.), at doses initially of […], but subsequently up to 30 mg/kg in order to establish whether the TI was 10 or higher, and/or at lower doses to establish the minimum dose to cause 50% inhibition of neutrophilia. Ferrets were fasted overnight but allowed free access to water. The animals were orally dosed with vehicle or PDE4 inhibitor using a 15 cm dosing needle that was passed down the back of the throat into the oesophagus. After dosing, the animals were returned to holding cages fitted with Perspex doors to allow observation, and given free access to water. After dosing, the animals were constantly observed and any emesis or behavioral changes were recorded. The animals were allowed access to food 60 to 90 minutes after p.o. dosing.
Thirty minutes after p.o. dosing with compound or vehicle control, the ferrets were placed into sealed Perspex containers and exposed to an aerosol of LPS (100 μg/ml) for 10 minutes. Aerosols of LPS were generated by a nebulizer (DeVilbiss, USA) and this was directed into the Perspex exposure chamber. Following a 10 minute exposure period, the animals were returned to the holding cages and allowed free access to water, and at a later stage, food. Observation continued for a period of at least 2.5 hours post p.o. dosing and emetic episodes and behavioral changes were recorded.
2. Emetic episodes—the number of vomits and retches were counted.
3. Behavioral changes—the following behavioral effects were noted: salivation, panting, mouth clawing, flattened posture, ataxia, arched back and backward walking Any behavioral changes were semi-quantified by applying a severity rating (mild, moderate or severe).
4. The TI was calculated as the highest dose found to not cause emetic episodes divided by the lowest dose found to inhibit pulmonary neutrophilia by 50% or more.
Numbers in parentheses refer to the number of animals that responded. The numbers of animals in each group range from 4 to 22.
From these experiments, a therapeutic index (TI) was determined for each compound by dividing the threshold dose for inducing emetic episodes by the ED50 value for inhibiting the pulmonary neutrophilia.

[2] = tested on: severe plaque-type psoriasis; test: Phase 2 open-label pilot study in patients with severe plaque-type psoriasis
[3] = 20 mg orally daily for 29 days plus follow-up
[4] = 20 mg orally daily, 29 days, 17 evaluable
[5] = 20 mg orally daily, Day 29, 8 responders
[6] = 20 mg orally daily, Day 29, 19 enrolled
[7] = 20 mg orally daily, Day 29, of enrolled patients
[8] = Nonresponder, 20 mg orally daily

CCOc1cc(C(CS(C)(=O)=O)N2C(=O)c3cccc(NC(C)=O)c3C2=O)ccc1OC (single isomer, unassigned; (+)) [Compound A, (+)-2-[1-(3-ethoxy-4-methoxyphenyl)-2-methylsulfonylethyl]-4-acetylaminoisoindoline-1,3-dione]
Threshold emetic dose ([1]; conscious ferret, p.o.): 10 mg/kg
Ataxia, severity ([1]; ferret, 0.1 mg/kg p.o.): None
Backward walking, number of animals that responded ([1]; ferret, 0.1 mg/kg p.o.): (3/5)
Backward walking, severity ([1]; ferret, 0.1 mg/kg p.o.): Mild
Flattened posture, number of animals that responded ([1]; ferret, 0.1 mg/kg p.o.): (2/5)
Flattened posture, severity ([1]; ferret, 0.1 mg/kg p.o.): Mild
Lip licking, number of animals that responded ([1]; ferret, 0.1 mg/kg p.o.): (4/5)
Lip licking, severity ([1]; ferret, 0.1 mg/kg p.o.): Mild
Mouth clawing, severity ([1]; ferret, 0.1 mg/kg p.o.): None
Panting, severity ([1]; ferret, 0.1 mg/kg p.o.): None
Retches, severity ([1]; ferret, 0.1 mg/kg p.o.): None
Salivation, severity ([1]; ferret, 0.1 mg/kg p.o.): None
Vomits, severity ([1]; ferret, 0.1 mg/kg p.o.): None
Ataxia, severity ([1]; ferret, 0.3 mg/kg p.o.): None
Backward walking, number of animals that responded ([1]; ferret, 0.3 mg/kg p.o.): (4/6)
Backward walking, severity ([1]; ferret, 0.3 mg/kg p.o.): Mild
Flattened posture, number of animals that responded ([1]; ferret, 0.3 mg/kg p.o.): (2/6)
Flattened posture, severity ([1]; ferret, 0.3 mg/kg p.o.): Mild
Lip licking, number of animals that responded ([1]; ferret, 0.3 mg/kg p.o.): (3/6)
Lip licking, severity ([1]; ferret, 0.3 mg/kg p.o.): Mild
Mouth clawing, severity ([1]; ferret, 0.3 mg/kg p.o.): None
Panting, severity ([1]; ferret, 0.3 mg/kg p.o.): None
Retches, severity ([1]; ferret, 0.3 mg/kg p.o.): None
Salivation, severity ([1]; ferret, 0.3 mg/kg p.o.): None
Vomits, severity ([1]; ferret, 0.3 mg/kg p.o.): None
emetic episodes at anti-inflammatory dose ([1]; ferret, 1 mg/kg): no emetic episodes
Ataxia, severity ([1]; ferret, 1.0 mg/kg p.o.): None
Backward walking, number of animals that responded ([1]; ferret, 1.0 mg/kg p.o.): (4/6)
Backward walking, severity ([1]; ferret, 1.0 mg/kg p.o.): Mild
Flattened posture, number of animals that responded ([1]; ferret, 1.0 mg/kg p.o.): (2/6)
Flattened posture, severity ([1]; ferret, 1.0 mg/kg p.o.): Mild
Lip licking, number of animals that responded ([1]; ferret, 1.0 mg/kg p.o.): (6/6)
Lip licking, severity ([1]; ferret, 1.0 mg/kg p.o.): Mild
Mouth clawing, severity ([1]; ferret, 1.0 mg/kg p.o.): None
Panting, severity ([1]; ferret, 1.0 mg/kg p.o.): None
Retches, severity ([1]; ferret, 1.0 mg/kg p.o.): None
Salivation, severity ([1]; ferret, 1.0 mg/kg p.o.): None
Vomits, severity ([1]; ferret, 1.0 mg/kg p.o.): None
Ataxia, severity ([1]; ferret, 3.0 mg/kg p.o.): None
Backward walking, number of animals that responded ([1]; ferret, 3.0 mg/kg p.o.): (5/8)
Backward walking, severity ([1]; ferret, 3.0 mg/kg p.o.): Moderate
Flattened posture, number of animals that responded ([1]; ferret, 3.0 mg/kg p.o.): (7/8)
Flattened posture, severity ([1]; ferret, 3.0 mg/kg p.o.): Marked
Lip licking, number of animals that responded ([1]; ferret, 3.0 mg/kg p.o.): (2/8)
Lip licking, severity ([1]; ferret, 3.0 mg/kg p.o.): Mild
Mouth clawing, number of animals that responded ([1]; ferret, 3.0 mg/kg p.o.): (1/8)
Mouth clawing, severity ([1]; ferret, 3.0 mg/kg p.o.): Mild
Panting, severity ([1]; ferret, 3.0 mg/kg p.o.): None
Retches, severity ([1]; ferret, 3.0 mg/kg p.o.): None
Salivation, severity ([1]; ferret, 3.0 mg/kg p.o.): None
Vomits, severity ([1]; ferret, 3.0 mg/kg p.o.): None
Ataxia, severity ([1]; ferret, 10 mg/kg p.o.): None
Backward walking, number of animals that responded ([1]; ferret, 10 mg/kg p.o.): (6/6)
Backward walking, severity ([1]; ferret, 10 mg/kg p.o.): Marked
Flattened posture, number of animals that responded ([1]; ferret, 10 mg/kg p.o.): (6/6)
Flattened posture, severity ([1]; ferret, 10 mg/kg p.o.): Marked
Lip licking, number of animals that responded ([1]; ferret, 10 mg/kg p.o.): (5/6)
Lip licking, severity ([1]; ferret, 10 mg/kg p.o.): Moderate
Mouth clawing, number of animals that responded ([1]; ferret, 10 mg/kg p.o.): (1/6)
Mouth clawing, severity ([1]; ferret, 10 mg/kg p.o.): Mild
Panting, severity ([1]; ferret, 10 mg/kg p.o.): None
Retches, severity ([1]; ferret, 10 mg/kg p.o.): Mild
Salivation, number of animals that responded ([1]; ferret, 10 mg/kg p.o.): 1/6
Salivation, severity ([1]; ferret, 10 mg/kg p.o.): Mild
Vomits, severity ([1]; ferret, 10 mg/kg p.o.): None
emesis ([1]; ferret, 10 mg/kg p.o.): no frank emesis
salivation and behavioral changes, score ([1]; ferret, 10 mg/kg p.o.): mild or moderate
Retches, number of animals that responded ([1]; ferret, 10 mg/kg p.o., 10 mg/kg): 2/6 and (2/6)
Ataxia, number of animals that responded ([1]; ferret, 30 mg/kg p.o.): (3/4)
Ataxia, severity ([1]; ferret, 30 mg/kg p.o.): Mild
Backward walking, number of animals that responded ([1]; ferret, 30 mg/kg p.o.): (2/4)
Backward walking, severity ([1]; ferret, 30 mg/kg p.o.): Mild
Flattened posture, number of animals that responded ([1]; ferret, 30 mg/kg p.o.): (4/4)
Flattened posture, severity ([1]; ferret, 30 mg/kg p.o.): Marked
Lip licking, number of animals that responded ([1]; ferret, 30 mg/kg p.o.): (4/4)
Lip licking, severity ([1]; ferret, 30 mg/kg p.o.): Moderate
Mouth clawing, number of animals that responded ([1]; ferret, 30 mg/kg p.o.): (4/4)
Mouth clawing, severity ([1]; ferret, 30 mg/kg p.o.): Marked
Panting, number of animals that responded ([1]; ferret, 30 mg/kg p.o.): (1/4)
Panting, severity ([1]; ferret, 30 mg/kg p.o.): Mild
Retches, number of animals that responded ([1]; ferret, 30 mg/kg p.o.): (3/4)
Retches, severity ([1]; ferret, 30 mg/kg p.o.): Marked
Salivation, number of animals that responded ([1]; ferret, 30 mg/kg p.o.): (3/4)
Salivation, severity ([1]; ferret, 30 mg/kg p.o.): Moderate
Vomits, number of animals that responded ([1]; ferret, 30 mg/kg p.o.): (3/4)
Vomits, severity ([1]; ferret, 30 mg/kg p.o.): Moderate
behavioral changes ([1]; ferret, 30 mg/kg p.o.): pronounced
emesis, animals affected ([1]; ferret, 30 mg/kg p.o.): 3/4
emesis, severity ([1]; ferret, 30 mg/kg p.o.): moderate to marked
behavioral changes (flattened posture, lip licking, backward walking), classification ([1]; ferret, 0.1-3 mg/kg p.o.): mild
emetic episodes (retching and vomiting) ([1]; ferret, 0.1-3 mg/kg p.o.): no emetic episodes
Therapeutic index ([1]; threshold emetic dose divided by ED50 for pulmonary neutrophilia, ferret): 12
patients with abnormal HLA-DR that had normal HLA-DR at Day 29 ([2]; 20 mg orally daily): Two
patients with abnormal ICAM-1 at baseline that had normal ICAM-1 at Day 29 ([2]; 20 mg orally daily): Three
patients with abnormal K16 at baseline that had normal K16 at Day 29 ([2]; 20 mg orally daily): one
patients with abnormal fillagrin at baseline that had normal fillagrin at Day 29 ([2]; 20 mg orally daily): three
treatment-related adverse event: headache ([2]; 20 mg orally daily for 29 days): 26.3%
treatment-related adverse event: nausea ([2]; 20 mg orally daily for 29 days): 15.8%
deaths [2, 3]: No deaths
premature discontinuation due to an adverse event [2, 3]: nor did any patient prematurely discontinue due to an adverse event
patients with evaluable biopsies demonstrating a 20% reduction in epidermal skin thickness ([2]; 20 mg orally daily for 29 days, Day 29, 15 evaluable): 53.3%
evaluable patients demonstrating improvement in static Physician's Global Assessment (sPGA) [2, 4]: 52.9%
evaluable patients showing a reduction from baseline in psoriasis body surface area (BSA) [2, 4]: 58.8%
mean reduction from baseline in dermal CD83+ cells in responders ([2]; 20 mg orally daily, Day 29): 25.86%
mean reduction from baseline in epidermal CD83+ cells in responders ([2]; 20 mg orally daily, Day 29): 32.50%
reduction of CD11c cells in the dermis in responders ([2]; 20 mg orally daily, Day 29): 18.50%
reduction of CD11c cells in the epidermis in responders ([2]; 20 mg orally daily, Day 29): 40.16%
decrease of dermal T-cells in responders [2, 5]: 28.79%
decrease of epidermal T-cells in responders [2, 5]: 42.56%
enrolled subjects demonstrating improvement in PASI [2, 6]: 73.7%
patients showing >50% reduction from baseline in total PASI score [2, 6]: 15.8%
mean reduction of epidermal thickness ([2]; 20 mg orally daily, Day 29, all 15 evaluable subjects, p=0.015): 20.5%
enrolled patients showing a reduction from baseline in psoriasis BSA [2, 7]: 52.6%
enrolled patients showing an improvement in sPGA [2, 7]: 47.4%
overall safety ([2]; 20 mg p.o. QD for 29 days): safe
Percentage Reduction at Day 29: CD11c, Dermis [2, 8]: −21.19%
Percentage Reduction at Day 29: CD11c, Epidermis [2, 8]: −2.54%
Percentage Reduction at Day 29: CD83+, Dermis [2, 8]: +0.46%
Percentage Reduction at Day 29: CD83+, Epidermis [2, 8]: −16.31%
Percentage Reduction at Day 29: T-cells, Dermis [2, 8]: −17.34%
Percentage Reduction at Day 29: T-cells, Epidermis [2, 8]: +8.74%
Percentage Reduction at Day 29: CD11c, Dermis ([2]; Responder, 20 mg orally daily): −18.50%
Percentage Reduction at Day 29: CD11c, Epidermis ([2]; Responder, 20 mg orally daily): −40.16%
Percentage Reduction at Day 29: CD83+, Dermis ([2]; Responder, 20 mg orally daily): −25.86%
Percentage Reduction at Day 29: CD83+, Epidermis ([2]; Responder, 20 mg orally daily): −32.50%
Percentage Reduction at Day 29: T-cells, Dermis ([2]; Responder, 20 mg orally daily): −28.79%
Percentage Reduction at Day 29: T-cells, Epidermis ([2]; Responder, 20 mg orally daily): −42.56%
reduction of mRNA expression of iNOS in lesional skin (RT-PCR) ([2]; after 29 days of treatment, 20 mg orally daily, p=0.025): 66.5%
